These are literature values, as cited in patent US20050143441A1, “Novel medical combination treatment of obesity involving 4,5-dihydro-1H-pyrazole derivatives having CB1-antagonistic activity” (priority 2003, published 2005).

For series [1] the following is noted: in vivo.
The conditions of series [2]: clinically obese patients.
Series [3] relates to excretion of fat from the diet. The settings on record: healthy male volunteers, 5 days.
Series [4] relates to carragheenin induced swelling. The conditions noted are these: mice.
For a further series, the system named is plasma lipases. The conditions noted are these: relative to THL.
Series [5] addresses T1, porcine pancreatic lipase (Sus scrofa, UniProt P00591).
T1 sequence (P00591 1-450): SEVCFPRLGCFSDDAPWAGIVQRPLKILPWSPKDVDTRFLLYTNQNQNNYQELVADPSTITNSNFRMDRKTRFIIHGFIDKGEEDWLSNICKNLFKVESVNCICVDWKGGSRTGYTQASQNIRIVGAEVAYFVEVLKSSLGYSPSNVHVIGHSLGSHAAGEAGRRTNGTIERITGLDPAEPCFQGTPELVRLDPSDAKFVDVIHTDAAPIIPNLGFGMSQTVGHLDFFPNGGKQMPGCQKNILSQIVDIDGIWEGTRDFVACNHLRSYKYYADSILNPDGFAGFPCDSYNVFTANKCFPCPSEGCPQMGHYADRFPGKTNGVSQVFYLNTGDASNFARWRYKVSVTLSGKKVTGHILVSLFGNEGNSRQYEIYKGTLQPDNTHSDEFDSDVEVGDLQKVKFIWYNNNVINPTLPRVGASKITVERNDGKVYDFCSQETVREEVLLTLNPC

Turning to `CCCCCCCCCCCCCCCCOc1nc2ccc(C)cc2c(=O)o1` [ATL-962, 2-hexadecyloxy-6-methyl-4H-3,1-benzoxazin-4-one], the “toxicity in preclinical studies” value in series [1] is given as “no toxicity was observed”. Also, the “safety and tolerability, phase IIb” value in series [2] was “safe and generally well tolerated”. The “safety and tolerability, phase Ib” value in series [3] is “safe and well tolerated”.

As to `CC[C@@H](C)[C@@H](O)[C@H](C)C(=O)[C@H](C)/C=C(\C)C[C@H](C)[C@@H]1OC(=O)[C@H]1CC` [Ebelactone B], in series [4], the carragheenin induced swelling result is “reduces carragheenin induced swelling”.

Regarding `CCCCCCC[C@@H](C[C@@H]1OC(=O)[C@H]1CCCCCCCC(C)C)OC(=O)[C@H](C)NC=O` [Panclicin A], in the series on plasma lipases, the “potency against plasma lipases compared with THL” value is listed as “same potency as THL”. Moreover, the “mode of inhibition of pancreatic lipase (irreversibility)” value (shortened to “mode of inhibition of pancreatic lipase”) in series [5] is listed as “irreversibly inhibit pancreatic lipase”.

Turning to `CCCCCCC[C@@H](C[C@@H]1OC(=O)[C@H]1CCCCCCCC(C)C)OC(=O)CNC=O` [Panclicin C], in series [5], the “mode of inhibition of pancreatic lipase” value is “irreversibly inhibit pancreatic lipase”. In the case of `CCCCCCCCCC[C@@H]1C(=O)O[C@H]1C[C@H](CCCCCCC)OC(=O)CNC=O` [Panclicin D], in series [5], the “mode of inhibition of pancreatic lipase” value is reported as “irreversibly inhibit pancreatic lipase”. Consider `CCCCCCCCCCCC[C@@H]1C(=O)O[C@H]1C[C@H](CCCCCCC)OC(=O)CNC=O` [Panclicin E], for which the “mode of inhibition of pancreatic lipase” value in series [5] is “irreversibly inhibit pancreatic lipase”. On to `CCCCCCCCCCC[C@@H](C[C@@H]1OC(=O)[C@H]1CCCCCC)OC(=O)[C@H](CC(C)C)NC=O` [tetrahydrolipstatin, (2S,3S,5S)-5-((S)-2-4-methylvaleryloxy)-2-heyl-3-hydroxy-hexadecanoic acid lactone], for which, in series [3] (orlistat 120 mg tid), the “fat excreted, average” value is 5.6 (+/−3.8) g/day.
